Source: patent publication US20230234936A1, “COMPOUND FOR TARGETING AND DEGRADING PROTEIN, AND PREPARATION METHOD THEREFOR AND USE THEREOF” (SHANGHAI LEADINGTAC PHARMACEUTICAL CO., LTD., priority 2020, published 2023)
pIC50: −log10 of the molar value.

Key:
IKZF1 in L363 cells = target: T1, IKZF1 in L363 cells (Homo sapiens, UniProt Q13422+Q96SW2); assay: Degradation of IKZF1 in L363 cells (Western blot); type: cell-based; settings: 1000 nM, 16 hours
T1 construct: endogenous in cells; host or cells: L363
Description: (§1) The 24-well cell culture plate was inoculated with 0.95 mL L363 cells (Nanjing Co-bioer) per well with a cell density of 6×10^5 cells/well. The cell plate was placed in a 5% carbon dioxide incubator and cultured at 37° C. for 8 hours, then 50 μL of compound solution was added. The final concentration of the compound was 1000 nM. After continuing to culture for 16 hours, the cells were collected into a 1.5 mL centrifuge tube and centrifuged at 3000 rpm and 4° C. for 5 minutes. Cell precipitation was cleaned twice with 1×DPBS, resuspended cells were lysed with 100 μL lysate (cell lysate was Western and IP cell lysate (Beyotime), supplemented with 1 mM mixture of phenylmethylsulfonyl fluoride and protease inhibitor (Beyotime)), left on ice for 30 minutes, then centrifuged at 14000 g at 4° C. for 10 minutes, and the supernatant was taken to detect IKZF1 and IKZF3 protein level by Western blot.
(§2) The total protein concentration in the supernatant of cell lysis was determined by BCA protein quantitative kit (Tiangen). According to the concentration of total protein detected by BCA, the supernatant was adjusted to 0.2 μg/μL with PBS and 5× SDS-PAGE protein loading buffer (Beyotime), bathed in water at 100° C. for 10 minutes, then placed in ice bath for 5 minutes, centrifuged at 14000 g and 4° C. for 5 minutes, and then collected as WB loading sample. Prefabricated glue (KeyGEN) was used for protein electrophoresis with a loading amount of 10 μL (total protein 2 μg). After Tris-MOPS-SDS electrophoresis solution (Adamas), 120V constant pressure electrophoresis was performed. After electrophoresis, the protein on the adhesive strip was transferred to PVDF membrane with a constant current of […] for 50 minutes. After the membrane was transferred, the membrane was incubated in 5% bovine serum albumin solution for 2 hours at room temperature. After blocking, PVDF membranes were incubated with IKZF1 primary antibody (CST) and IKZF3 primary antibody (Abcam) overnight at 4°, the membranes were washed with TBST buffer (2.4 g Tris, 8.8 g NaCl, 1.5 mL Tween 20, pH adjusted to 7.4, constant volume to IL) for 30 minutes, incubated with secondary antibody (Abcam) for 2 hours at room temperature, finally incubated with Clarity Western ECL Substrate(BIO-RAD) for 5 minutes for luminescence development, chemiluminescence imaging system (Clinx, chemiScope 6200 Touch) for development and protein mapping photography. The protein map was analyzed by Clinx chemiluminescence analysis software for grayscale values. Using the formula: grayscale correction value=(target protein grayscale value/corresponding internal reference grayscale value)×10^3, the grayscale correction value of each sample was calculated. The degradation rate was calculated by comparing with the grayscale correction value of the control group.

[1] = target: T2, IRAK4 protein in THP-1 cells (Homo sapiens, UniProt Q9NWZ3); assay: Degradation of IRAK4 in THP-1 cells (Western blot); type: cell-based; settings: 24 hours, compound 1-3000 nM
T2 construct: endogenous in cells; host or cells: THP-1
T2 sequence (Q9NWZ3 1-460): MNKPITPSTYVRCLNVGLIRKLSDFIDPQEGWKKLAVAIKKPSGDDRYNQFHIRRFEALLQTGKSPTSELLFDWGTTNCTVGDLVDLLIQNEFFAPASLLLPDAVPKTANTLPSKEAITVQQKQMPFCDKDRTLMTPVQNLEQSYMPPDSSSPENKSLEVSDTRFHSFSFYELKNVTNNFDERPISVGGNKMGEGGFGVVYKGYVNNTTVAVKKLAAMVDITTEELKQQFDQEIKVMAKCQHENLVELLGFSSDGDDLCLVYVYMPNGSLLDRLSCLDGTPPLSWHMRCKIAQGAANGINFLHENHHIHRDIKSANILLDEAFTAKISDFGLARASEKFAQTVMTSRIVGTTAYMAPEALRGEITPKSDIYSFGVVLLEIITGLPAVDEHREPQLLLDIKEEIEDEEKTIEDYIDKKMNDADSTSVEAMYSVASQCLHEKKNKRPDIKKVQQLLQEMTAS
Procedure, shortened: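 THP-1 cells (5×10^5/well) treated 24 h with compound at 1–3000 nM final. IRAK4 in lysates quantified by Western blot, normalized to internal reference and compared with control to give degradation rate; DC50 and Dmax from nonlinear fit of log concentration.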

IKZF3 in L363 cells = target: T3, IKZF3 in L363 cells (Homo sapiens, UniProt Q96SW2+Q9UKT9); assay: Degradation of IKZF3 in L363 cells (Western blot); type: cell-based; settings: 1000 nM, 16 hours
T3 construct: endogenous in cells; host or cells: L363
Description: as §1, §2

IRAK4 kinase = target: T4, IRAK4 kinase (Homo sapiens, UniProt Q9NWZ3); assay: IRAK4 kinase activity test (KinEASE-STK S1 HTRF kit); type: biochemical; settings: 2.5 nM kinase, 1 μM biotinylated polypeptide substrate, 7 μM ATP, 37° C. 120 min
T4 sequence (Q9NWZ3 1-460): T2 sequence (Q9NWZ3 1-460)
Procedure, shortened: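 Compound in DMSO, serially diluted to 10000–0.038 nM final, incubated with 2.5 nM kinase, 1 μM biotinylated peptide substrate and 7 μM ATP at 37° C for 120 min. Eu-anti-phospho-Ser/Thr antibody plus streptavidin-XL665 stopped the reaction (1 h RT). HTRF 665/620 nm ratio gave % inhibition versus control; IC50 from nonlinear log-concentration fit.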

T3 sequence (Q9UKT9 whole entry): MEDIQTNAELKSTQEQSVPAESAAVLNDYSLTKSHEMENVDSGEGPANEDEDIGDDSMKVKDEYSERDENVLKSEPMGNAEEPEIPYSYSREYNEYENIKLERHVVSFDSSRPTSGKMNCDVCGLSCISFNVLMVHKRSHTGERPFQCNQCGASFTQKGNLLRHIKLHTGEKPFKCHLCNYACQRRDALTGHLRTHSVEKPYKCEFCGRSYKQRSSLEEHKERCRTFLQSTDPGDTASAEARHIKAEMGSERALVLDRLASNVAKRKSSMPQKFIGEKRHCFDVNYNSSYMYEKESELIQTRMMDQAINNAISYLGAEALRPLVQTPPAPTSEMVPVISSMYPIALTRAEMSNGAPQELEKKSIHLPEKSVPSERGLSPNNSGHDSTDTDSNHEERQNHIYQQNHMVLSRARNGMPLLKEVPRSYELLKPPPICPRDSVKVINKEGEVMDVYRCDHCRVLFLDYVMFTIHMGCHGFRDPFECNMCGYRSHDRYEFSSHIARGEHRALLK
T3 sequence (Q96SW2 whole entry): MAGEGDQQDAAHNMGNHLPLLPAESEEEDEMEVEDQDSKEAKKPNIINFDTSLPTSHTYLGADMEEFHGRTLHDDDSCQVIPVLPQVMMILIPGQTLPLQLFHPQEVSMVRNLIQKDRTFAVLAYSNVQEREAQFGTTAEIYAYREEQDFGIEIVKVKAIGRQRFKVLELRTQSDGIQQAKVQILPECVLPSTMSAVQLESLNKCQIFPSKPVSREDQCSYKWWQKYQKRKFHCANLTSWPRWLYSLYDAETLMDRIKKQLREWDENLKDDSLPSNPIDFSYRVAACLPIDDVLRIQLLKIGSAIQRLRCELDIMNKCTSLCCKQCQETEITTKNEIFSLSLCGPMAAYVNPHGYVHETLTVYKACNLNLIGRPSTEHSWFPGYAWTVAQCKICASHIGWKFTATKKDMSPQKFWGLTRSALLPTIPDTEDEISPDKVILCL
T3 sequence (Q16531 whole entry partner): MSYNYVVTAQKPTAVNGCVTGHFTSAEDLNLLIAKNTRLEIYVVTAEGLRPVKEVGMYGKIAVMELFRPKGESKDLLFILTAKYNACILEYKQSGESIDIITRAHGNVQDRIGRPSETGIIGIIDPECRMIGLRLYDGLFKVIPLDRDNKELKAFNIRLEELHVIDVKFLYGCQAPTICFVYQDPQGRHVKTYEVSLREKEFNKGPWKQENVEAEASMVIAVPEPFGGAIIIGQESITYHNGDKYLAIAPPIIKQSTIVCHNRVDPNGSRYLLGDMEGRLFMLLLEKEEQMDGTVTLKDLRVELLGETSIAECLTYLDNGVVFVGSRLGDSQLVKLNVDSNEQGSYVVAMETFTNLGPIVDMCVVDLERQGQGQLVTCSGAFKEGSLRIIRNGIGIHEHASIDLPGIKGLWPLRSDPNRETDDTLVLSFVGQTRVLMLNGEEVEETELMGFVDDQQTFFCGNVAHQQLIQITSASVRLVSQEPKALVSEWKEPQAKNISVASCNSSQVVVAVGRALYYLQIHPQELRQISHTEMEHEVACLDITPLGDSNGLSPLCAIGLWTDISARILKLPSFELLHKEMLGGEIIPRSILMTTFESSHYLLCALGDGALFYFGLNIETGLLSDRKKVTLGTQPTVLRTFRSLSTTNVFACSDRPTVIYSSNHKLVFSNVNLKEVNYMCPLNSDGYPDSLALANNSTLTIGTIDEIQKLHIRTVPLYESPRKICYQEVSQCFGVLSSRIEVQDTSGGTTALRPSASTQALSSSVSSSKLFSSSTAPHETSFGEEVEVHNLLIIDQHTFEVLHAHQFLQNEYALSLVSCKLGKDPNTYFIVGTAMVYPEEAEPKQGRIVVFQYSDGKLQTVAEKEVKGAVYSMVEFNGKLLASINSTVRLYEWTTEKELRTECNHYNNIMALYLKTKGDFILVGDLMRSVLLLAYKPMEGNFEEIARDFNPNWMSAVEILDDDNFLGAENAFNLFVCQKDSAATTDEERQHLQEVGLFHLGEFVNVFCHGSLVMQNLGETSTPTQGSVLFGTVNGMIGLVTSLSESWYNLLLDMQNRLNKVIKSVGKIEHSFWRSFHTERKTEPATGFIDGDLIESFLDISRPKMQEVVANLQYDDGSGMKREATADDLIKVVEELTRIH
T1 sequence (Q13422 whole entry): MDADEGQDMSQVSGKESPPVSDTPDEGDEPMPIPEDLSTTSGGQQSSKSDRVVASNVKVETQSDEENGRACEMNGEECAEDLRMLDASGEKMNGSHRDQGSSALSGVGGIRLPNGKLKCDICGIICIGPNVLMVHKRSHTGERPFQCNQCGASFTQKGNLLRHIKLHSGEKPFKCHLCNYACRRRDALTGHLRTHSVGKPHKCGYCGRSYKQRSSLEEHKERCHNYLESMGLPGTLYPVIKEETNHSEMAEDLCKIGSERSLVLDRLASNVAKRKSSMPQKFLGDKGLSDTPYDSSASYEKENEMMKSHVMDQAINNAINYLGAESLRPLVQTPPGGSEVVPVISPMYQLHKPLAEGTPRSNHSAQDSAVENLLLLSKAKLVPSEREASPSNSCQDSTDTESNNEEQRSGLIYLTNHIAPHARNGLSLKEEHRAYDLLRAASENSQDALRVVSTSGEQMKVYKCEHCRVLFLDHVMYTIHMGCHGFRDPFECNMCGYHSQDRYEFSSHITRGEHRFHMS
T1 sequence (Q96SW2 whole entry): as the sequence (Q96SW2 whole entry) above
T1 sequence (Q16531 whole entry partner): as the sequence (Q16531 whole entry partner) above

IKZF1 degradation rate (IKZF1 in L363 cells) [%] | DC50 [1] [nM] | Dmax [1] [%] | IKZF3 degradation rate (IKZF3 in L363 cells) [%] | pIC50 (IRAK4 kinase) | SMILES
10.2 ± 1.8 | 2.5 | 98.1 | −2.2 ± 2.8 | 7.78 | CC(C)(O)c1cc2nn(C3CCN(CCC4CCC5(CC4)CCN(C(=O)c4ccc(F)c(N6CCC(=O)NC6=O)c4)CC5)CC3)cc2cc1NC(=O)c1cccc(C(F)(F)F)n1 [Example 34, N-(2-(1-(2-(3-(3-(2,4-dioxotetrahydro-pyrimidin-1 (2H)-yl)-4-fluoro-benzoyl)-3-azaspiro[5.5]undec-9-yl)ethyl)piperidin-4-yl)-6-(2-hydroxyprop-2-yl)-2H-indazol-5-yl)-6-(trifluoro-methyl) pyridinecarbox-amide]
53.8 ± 2.0 | 4.8 | 98 | 9.8 ± 2.0 | 7.45 | CC(C)(O)c1cc2nn(C3CCN(CCC4CCC5(CC4)CCN(C(=O)c4ccc(F)c(C6CCC(=O)NC6=O)c4)CC5)CC3)cc2cc1NC(=O)c1cccc(C(F)(F)F)n1 (stereo not drawn) [Example 40, N-(2-(1-(2-(3-(3-(2,6-dioxopiperidin-3-yl)-4-fluoro-benzoyl)-3-azaspiro [5.5]undec-9-yl)ethyl)piperidin-4-yl)-6-(2-hydroxyprop-2-yl)-2H-indazol-5-yl)-6-(trifluoro-methyl) pyridinecarbox-amide]
99.7 ± 0.2 | – | – | 98.6 ± 0.6 | – | Nc1cccc2c1C(=O)N(C1CCC(=O)NC1=O)C2=O (stereo not drawn) [Pomalidomide]
